Source: patent US20240360146A1, “BRUTON'S TYROSINE KINASE AND MUTANT DEGRADER, COMPOSITION AND APPLICATION THEREOF” (HANGZHOU HEALZEN THERAPEUTICS CO., LTD., priority 2021, published 2024)

Columns and labels:
Assay type in all cases: cell-based
OCI-LY10 cells = assay: Inhibitory activity on OCI-LY10 cell proliferation (MTS); details: Homo sapiens, 72 h
Procedure: (§1) The anti-tumor efficacy of the compounds was tested by measuring their inhibitory effects on OCI-LY10 and Mino cell proliferation. OCI-LY10 and Mino cells were cultured in RPMI-1640 medium containing 10% fetal calf serum. OCI-LY10 and Mino cells were digested, inoculated in a 96-well plate at a cell concentration of 10000 cells/well, and incubated overnight at 37° C., 5% CO2. Compounds of different concentrations (1000 nM, 4-fold dilution, 8 points) were added to the 96-well plate and incubated for 72 h (LY10) or 168 h (Mino) at 37° C. and 5% CO2, and then 20 uL of MTS was added to each well. After incubation for 2 h, 25 μl of 10% SDS was added to each well to terminate the reaction. The absorbance at 490 nm and 650 nm were measured with a microplate reader. IC50 was calculated using GraphPad Prism 5.0.

BTK = biological target: T1, BTK (Homo sapiens, UniProt Q06187); assay: BTK degradation activity test in Mino cells; details: 16 h incubation, Western blot or Elisa
T1 construct: endogenous in cells; host or cells: Mino cells
T1 sequence (Q06187 whole entry): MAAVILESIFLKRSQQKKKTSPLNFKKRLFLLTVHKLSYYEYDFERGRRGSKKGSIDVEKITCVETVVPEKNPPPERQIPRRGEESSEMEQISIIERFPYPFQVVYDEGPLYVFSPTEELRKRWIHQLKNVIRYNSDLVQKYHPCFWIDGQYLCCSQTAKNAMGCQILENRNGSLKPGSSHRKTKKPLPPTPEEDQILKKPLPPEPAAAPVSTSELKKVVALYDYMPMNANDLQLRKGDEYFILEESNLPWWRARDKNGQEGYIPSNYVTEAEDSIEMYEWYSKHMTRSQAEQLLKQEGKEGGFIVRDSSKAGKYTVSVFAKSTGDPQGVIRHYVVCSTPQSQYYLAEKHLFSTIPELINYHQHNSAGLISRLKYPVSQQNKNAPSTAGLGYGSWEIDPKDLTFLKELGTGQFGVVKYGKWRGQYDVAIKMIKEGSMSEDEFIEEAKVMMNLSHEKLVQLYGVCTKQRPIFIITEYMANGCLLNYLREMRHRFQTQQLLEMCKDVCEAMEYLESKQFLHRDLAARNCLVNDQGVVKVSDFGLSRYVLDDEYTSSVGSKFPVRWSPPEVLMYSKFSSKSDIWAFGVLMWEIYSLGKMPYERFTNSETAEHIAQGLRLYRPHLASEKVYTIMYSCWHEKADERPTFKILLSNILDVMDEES
Outline: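 DC50 derived by curve fitting of BTK degradation rates versus untreated control across compound concentrations. Mino cells were exposed for 16 h; BTK levels in lysates, normalised via BCA protein, measured by Western blot or ELISA.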

Mino cells = assay: Inhibitory activity on Mino cell proliferation (MTS); details: Homo sapiens, 168 h incubation
Procedure: as §1

Row | SMILES | IC50 (OCI-LY10 cells) [nM] | DC50 (BTK) [nM] | IC50 (Mino cells) [nM]
1 | CN1CCN([C@@H]2CCCN(c3nnc(C(N)=O)c(Nc4ccc(N5CCN(CC6CCN(c7cc8c(cc7F)C(=O)N(C7CCC(=O)NC7=O)C8=O)CC6)CC5)c(F)c4)n3)C2)C1=O (stereo partly drawn) [Compound 170, 5-((4-(4-((1-(2-(2,6-dioxopiperidin-3-yl)-6-fluoro-1,3-dioxoisoindolin-5-yl)piperidin-4-yl)methyl)piperazin-1-yl)-3-fluorophenyl)amino)-3-((R)-3-(3-methyl-2-oxoimidazolidin-1-yl)piperidin-1-yl)-1,2,4-triazin-6-carboxamide] | 1.25 | < 1 | 4.64
2 | CN1CCN([C@@H]2CCCN(c3nnc(C(N)=O)c(Nc4ccc(N5CCN(CC6CCN(c7ccc8c(c7)C(=O)N(C7CCC(=O)NC7=O)C8)CC6)CC5)c(F)c4)n3)C2)C1=O (stereo partly drawn) [Compound 168, 5-((4-(4-((1-(2-(2,6-dioxopiperidin-3-yl)-3-oxoisoindolin-5-yl)piperidin-4-yl)methyl)piperazin-1-yl)-3-fluorophenyl)amino)-3-((R)-3-(3-methyl-2-oxoimidazolidin-1-yl)piperidin-1-yl)-1,2,4-triazin-6-carboxamide] | 0.79 | < 1 | 3.77
3 | CN1CCN([C@@H]2CCCN(c3nnc(C(N)=O)c(Nc4ccc(N5CCN(CC#Cc6ccc(C(=O)NC7CCC(=O)NC7=O)nc6)CC5)c(F)c4)n3)C2)C1=O (stereo partly drawn) [Compound 224, 5-((4-(4-(3-(6-((2,6-dioxopiperidin-3-yl)carbamoyl)pyridin-3-yl)propan-2-yn-1-yl)piperazin-1-yl)-3-fluorophenyl)amino)-3-((R)-3-(3-methyl-2-oxoimidazolidin-1-yl)piperidin-1-yl)-1,2,4-triazin-6-carboxamide] | 2.25 | < 1 | –
4 | CN1CCN([C@@H]2CCCN(c3nnc(C(N)=O)c(Nc4ccc(N5CCN(CC6CCN(c7ccc(N8CCC(=O)NC8=O)c(F)c7F)CC6)CC5)c(F)c4)n3)C2)C1=O [Compound 185, (R)-5-((4-(4-((1-(4-(2,4-dioxotetrahydropyrimidin-1(2H)-yl)-2,3-difluorophenyl)piperidin-4-yl)methyl)piperazin-1-yl)-3-fluorophenyl)amino)-3-(3-(3-methyl-2-oxoimidazolidin-1-yl)piperidin-1-yl)-1,2,4-triazin-6-carboxamide] | 1.36 | < 1 | –
5 | Cc1cc(N2CCC(CN3CCC(c4ccc(Nc5nc(N6CCC[C@@H](N7CCN(C)C7=O)C6)nnc5C(N)=O)cc4)CC3)CC2)ccc1N1CCC(=O)NC1=O [Compound 236, (R)-5-((4-(1-((1-(4-(2,4-dioxotetrahydropyrimidin-1(2H)-yl)-3-methylphenyl)piperidin-4-yl)methyl)piperidin-4-yl)phenyl)amino)-3-(3-(3-methyl-2-oxoimidazolidin-1-yl)piperidin-1-yl)-1,2,4-triazin-6-carboxamide] | 0.63 | < 1 | –
6 | CN1CCN([C@@H]2CCCN(c3nnc(C(N)=O)c(Nc4ccc(N5CCC(CN6CCN(c7cc8c(cc7F)C(=O)N(C7CCC(=O)NC7=O)C8=O)CC6)CC5)cc4)n3)C2)C1=O (stereo partly drawn) [Compound 125, 5-((4-(4-((4-(2-(2,6-dioxopiperidin-3-yl)-6-fluoro-1,3-dioxoisoindolin-5-yl)piperazin-1-yl)methyl)piperidin-1-yl)phenyl)amino)-3-((R)-3-(3-methyl-2-oxoimidazolin-1-yl)piperidin-1-yl)-1,2,4-triazin-6-carboxamide] | 1.83 | < 1 | –
7 | Cc1cc(N2CCC(CN3CCN(c4ccc(Nc5nc(N6CCC[C@@H](N7CCN(C)C7=O)C6)nnc5C(N)=O)cc4F)CC3)CC2)ccc1NC1CCC(=O)NC1=O (stereo partly drawn) [Compound 207, 5-((4-(4-((1-(4-((2,6-dioxopiperidin-3-yl)amino)-3-methylphenyl)piperidin-4-yl)methyl)piperazin-1-yl)-3-fluorophenyl)amino)-3-((R)-3-(3-methyl-2-oxoimidazolidin-1-yl)piperidin-1-yl)-1,2,4-triazin-6-carboxamide] | 0.23 | < 1 | –
